# Measurements from patent US9539245B2, “Combination of immunotherapies with activators of Tie-2” (Aerpio Therapeutics, Inc., priority 2014, dated 2017).
# Entries after “also recorded” stand apart in the source; their conditions may differ.
# Key:
# Tie-2 [1] = assay: Western blot analysis of MBMECs pre-treated with hAng-2; type: cell-based, mouse; details: MBMECs pretreated with hAng-2 (16 h, 500 ng/ml), then Tie-2 activator 50 μM, 10 min
# Description: (§1) For the Western blot experiments, samples were solubilized in urea/SDS buffer (2.3 M urea, 1.5% SDS, 50 mM Tris, 25 mM TCEP, and 0.01% BPB) for 1.5 h at 30° C. with shaking. Solubilized samples were loaded into Tris-HCl Bis-acrylamide gels (8-15%), electrophoresed, and subsequently transferred to nitrocellulose membranes at 4° C. overnight. Membranes were blocked for 1 hour at room temperature on a 1× Roti®-block (Roth™), incubated with primary antibodies overnight at 4° C., washed with PBS-T (0.5% Tween®-20), incubated with horseradish peroxidase-conjugated or fluorescent secondary antibodies (LI-COR™) for 1 h at room temperature. Membranes were imaged in Odyssey® (LI-COR™) imaging device and quantitation was performed on exported raw tiff files using Image Studio™ 2.1 software (LI-COR™).
# Activation of Tie-2/Akt by the Tie-2 activator alone indicates a direct and specific effect of this drug. Phosphorylation of VE-Cadherin responsible for increased junctional permeability was reduced upon treatment with the Tie-2 activator (FIGS. 13 and 14). This observation explains in part the decreased permeability and stroke size in vivo.
# [2] = test system: stroke after MCAO in mice; assay: Middle cerebral artery occlusion (MCAO) stroke model in mice; type: in vivo, mouse
# Description: Mice with endothelial-specific overexpression of hAng-2 (DT mice) underwent a permanent middle cerebral artery occlusion (MCAO). After a permanent MCAO was performed, animals were allowed to survive for 24 hours or 72 hours. Mice were anesthetized intraperitoneally (i.p.) with a combination of midazolam/medetomidine/fentanyl (5/0.5/0.05 mg/kg body mass). Anesthesia was terminated by i.p. injection of atipamezol/naloxone/flumazenil 2.5/1.2/0.5 mg/kg body weight). Brains were isolated and frozen down in Tissue TEK® O.C.T. and stored at −80° C. until use. WT mice also underwent the procedure as controls.
# Larger infarcts were detected in DT mice that were subjected to MCAO as compared to WT mice that were subjected to MCAO after 24 hours and 72 hours (FIG. 9). Additionally, the IgG permeability in the stroke area was increased in DT mice (FIG. 10). Mice were treated with a Tie-2 activator shown below: […]
# Tie-2 [3] = assay: Western blot and staining of the stroke hemisphere of treated mice; parameters: species or system mouse; details: in vivo
# Description: as §1
# Activation of Tie-2 upon treatment indicated by higher pTie-2 and pAkt levels in stroke hemispheres confirms in vivo activity (FIG. 15). […] FIG. 16 illustrates representative images (n=2 each group) of Tie-2 (red) and pTie-2 (green) staining of the stroke hemisphere.
# MBMEC monolayers = assay: Transwell permeability assay of MBMEC monolayers with fluorescent tracers; type: cell-based, mouse (C57BL/6J); details: MBMECs from C57BL/6J mice, FIG. 2
# Description: MBMECs were isolated from CD1 and C57BL/6J mice pooling 4-6 animals in each preparation and cultured on transwell inserts. Permeability of the MBMEC monolayers to 0.45 kD Lucifer-Yellow (LY; Sigma™), Texas Red® 3 kD dextran (Invitrogen™), TMR 20 kD dextran (Sigma™) and 70 kD FITC dextran (Sigma™) was determined as follows. Medium from the bottom chamber at each time point was read in a fluorescence plate reader (Tecan™) at the corresponding tracer excitation/emission and normalized to the apical chamber fluorescence with the ratio for the control condition set to 100%.
# To rule out the possibility that Ang-2-mediated permeability was specific to the CD1 strain of mice used in the experiment, transwell assays applying fluorescent dextrans (3 kD, 20 kD, and 70 kD) and Lucifer-Yellow (LY 0.45 kD), using C57BL/6J mice were conducted.
# [4] = test system: primary mouse brain endothelial cells (MBMECs); assay: Transendothelial electrical resistance (TEER) measurements of MBMEC monolayers; type: cell-based; details: recombinant human Ang-2 treatment; CD1 mice; FIG. 1 PANEL B
# Description: To assess the role of Angiopoietin 1 (Ang-1), Angiopoietin 2 (Ang-2), and a Tie-2 activator in modulating permeability at the blood-brain barrier transendothelial electrical resistance (TEER) measurements were performed to obtain continuous barrier tightness index of primary mouse brain endothelial cells (MBMECs).
# TEER measurements were performed as follows: isolated mouse brain microvascular endothelial cells (MBMECs) (100,000 cells/cm^2, 4-6 mice/prep) were seeded onto 1 μm pore 24-well PET transwell inserts (Greiner Bio-One) pre-coated with fibronectin (5 μg/cm^2, Sigma-Aldrich™). The inserts were transferred to a cellZscope® device placed in a humidified incubator (37° C., 5% CO2) and impedance measurements obtained continuously. Treatment was started upon reaching a plateau in TEER levels.
# Isolation of mouse brain microvascular endothelial cells (MBMECs) was conducted as follows: Meninges-free brains were pooled and homogenized followed by digesting the pellet with 0.75% Collagenase II (Worthington™) in buffer A (1:1:1 volume ratio) for 1 hour with shaking at 37° C. For removing myelin, samples were resuspended in 25% BSA and centrifuged at 1500×g for 30 min at 4° C., followed by digesting the pellet with Collagenase/Dispase® (Roche™) and DNase I (Worthington™) in buffer A for 12 min at 37° C. […]
Compound,Akt activation (pAkt levels) (Tie-2 [1]; FIGS. 13 and 14),Tie-2 activation (pTie-2 levels) (Tie-2 [1]; FIGS. 13 and 14),phosphorylation of VE-Cadherin (pVE-Cadherin) (Tie-2 [1]; n=3),"stroke size (TTC staining) ([2]; WT mice after MCAO, compared to vehicle dH2O control, FIG. 11)","permeability to IgG in the stroke area ([2]; mice after MCAO, compared to control)","neurological behavior after stroke (behavior scoring test) ([2]; mice after stroke, FIG. 19)","Akt activation (pAkt) in the stroke hemisphere (Tie-2 [3]; Western blot, n=7, FIG. 15)","pTie-2 in the stroke hemisphere (Tie-2 [3]; treated mice compared to controls, FIGS. 15 and 16)","permeability to tracers (fluorescent dextrans 3 kD, 20 kD, 70 kD and Lucifer-Yellow 0.45 kD) (MBMEC monolayers)",transendothelial electrical resistance (TEER) of MBMECs [4]
CCc1nc([C@H](Cc2ccc(NS(=O)(=O)O)cc2)NC(=O)[C@H](Cc2ccccc2)NC(=O)OC)cs1 [Tie-2 activator],increased Tie-2 and Akt activation,increased levels of pTie-2,"decreased in tendency, but not significant",significantly decreased stroke sizes,Decreased permeability to IgG,improvement in neurological behavior,increased Akt activation,increased pTie-2 staining,–,–
"rhAng-2: recombinant human angiopoietin 2, a Tie-2 ligand",–,–,–,–,–,–,–,–,increased permeability to tracers of all sizes,decrease in TEER; also recorded: decrease in transendothelial electrical resistance
